Test results reported in the supplement of paper PMC11208160.

Experiment: recombinant UMI read abundance after kanamycin selection (control-corrected) (log10(CPM+1)); higher = more efficient recombination; extreme values may be limits of the assay; sequences stand for … in AGTGCAGAGAAAATCGGCCAGTTTTCTCTGCCTGCAGTCCGCATGCCGTGGGACCCCTTGGGTTCTAACCTGTTGCCTAGATTTATGCAGCGGACTGCCTTTCTCCCAAAGTGATAAACCGG…AGGTTGGTTTCACT; site = the 11-nt donor
How it was run: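 Each donor and donor-binding-loop pair was tracked by a 12-nt UMI on a plasmid carrying a promoterless kanamycin gene. With a second plasmid supplying a fixed target and T7-inducible IS621 bridge recombinase, the pool was plated in Escherichia coli on IPTG (0.07 mM) plus kanamycin or unselected. Sequencing of recombinant UMIs across the donor–target junction gave counts expressed as log10(CPM+1) after replicate averaging and control-derived scaling.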
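Also: IS621 bridge recombinase in Escherichia coli cells against a fixed T5 target plasmid.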

ATAGTCTCATGGACCGGTTTTCCCGGTAATCCGTATTTGAG (site ATAGTCTCTCT)
recombinant UMI read abundance (log10): 2

ATAGTGGCATGGACCGGTTTTCCCGGTAATCCGTATTTGGC (site ATAGTGGCTGC)
recombinant UMI read abundance (log10): 2.85

ATAGTTTCATGGACCGGTTTTCCCGGTAATCCGTATTTGCA (site ACAGTATCTTG)
recombinant UMI read abundance (log10): 1.49

ATAGTTTCATGGACCGGTTTTCCCGGTAATCCGTATTTGCA (site ATAGTTTCTTG)
recombinant UMI read abundance (log10): 2.47

ATATAGACATGGACCGGTTTTCCCGGTAATCCGTATTTGCT (site ATATAGACTAG)
recombinant UMI read abundance (log10): 2.72

ATATCGCCATGGACCGGTTTTCCCGGTAATCCGTATTTGAT (site ATATCGCCTAT)
recombinant UMI read abundance (log10): 0.284

ATATCTGCATGGACCGGTTTTCCCGGTAATCCGTATTTGTA (site ATATCTGCTTA)
recombinant UMI read abundance (log10): 2

ATATTCACATGGACCGGTTTTCCCGGTAATCCGTATTTGTT (site ATATTCACTAA)
recombinant UMI read abundance (log10): 1.75

ATCAAGACATGGACCGGTTTTCCCGGTAATCCGTATTTGCA (site AGGAAGACTTG)
recombinant UMI read abundance (log10): 0.783

ATCAAGACATGGACCGGTTTTCCCGGTAATCCGTATTTGCA (site ATCAAGACTTG)
recombinant UMI read abundance (log10): 2.31

ATCAAGGCATGGACCGGTTTTCCCGGTAATCCGTATTTGTC (site ATCAAGGCTGA)
recombinant UMI read abundance (log10): 1.53

ATCAATACATGGACCGGTTTTCCCGGTAATCCGTATTTGCA (site ATCAATACTTG)
recombinant UMI read abundance (log10): 1.44

ATCATTGCATGGACCGGTTTTCCCGGTAATCCGTATTTGGC (site ATCATTGCTGC)
recombinant UMI read abundance (log10): 2.13

ATCCAAGCATGGACCGGTTTTCCCGGTAATCCGTATTTGAA (site ATCCAAGCTAT)
recombinant UMI read abundance (log10): 0.379

ATCCAAGCATGGACCGGTTTTCCCGGTAATCCGTATTTGAA (site ATCCAAGCTCT)
recombinant UMI read abundance (log10): 0.445

ATCCAAGCATGGACCGGTTTTCCCGGTAATCCGTATTTGAA (site ATCCAAGCTGT)
recombinant UMI read abundance (log10): 0.751

ATCCAAGCATGGACCGGTTTTCCCGGTAATCCGTATTTGAA (site ATCCAAGCTTT)
recombinant UMI read abundance (log10): 1.29

ATCCAAGCATGGACCGGTTTTCCCGGTAATCCGTATTTGGG (site ATCCAAGCTCA)
recombinant UMI read abundance (log10): 0.0113

ATCCAAGCATGGACCGGTTTTCCCGGTAATCCGTATTTGGG (site ATCCAAGCTCC)
recombinant UMI read abundance (log10): 0.365

ATCCAAGCATGGACCGGTTTTCCCGGTAATCCGTATTTGGG (site ATCCAAGCTCG)
recombinant UMI read abundance (log10): 0.0298

ATCCAAGCATGGACCGGTTTTCCCGGTAATCCGTATTTGGG (site ATCCAAGCTCT)
recombinant UMI read abundance (log10): 0.00791

ATCCAATCATGGACCGGTTTTCCCGGTAATCCGTATTTGAG (site ATCCAAACTCT)
recombinant UMI read abundance (log10): 0.00423

ATCCAATCATGGACCGGTTTTCCCGGTAATCCGTATTTGAG (site ATCCAACCTCT)
recombinant UMI read abundance (log10): 0.0188

ATCCAATCATGGACCGGTTTTCCCGGTAATCCGTATTTGAG (site ATCCAAGCTCT)
recombinant UMI read abundance (log10): 0.0117

ATCCAATCATGGACCGGTTTTCCCGGTAATCCGTATTTGAG (site ATCCAATCTCT)
recombinant UMI read abundance (log10): 1.04

ATCCAGGCATGGACCGGTTTTCCCGGTAATCCGTATTTGAG (site ATCCAAGCTCT)
recombinant UMI read abundance (log10): 0.547

ATCCAGGCATGGACCGGTTTTCCCGGTAATCCGTATTTGAG (site ATCCACGCTCT)
recombinant UMI read abundance (log10): 0.013

ATCCAGGCATGGACCGGTTTTCCCGGTAATCCGTATTTGAG (site ATCCAGGCTCT)
recombinant UMI read abundance (log10): 0

ATCCAGGCATGGACCGGTTTTCCCGGTAATCCGTATTTGAG (site ATCCATGCTCT)
recombinant UMI read abundance (log10): 0.382
